Test results from ChEMBL document CHEMBL1129214, “Synthesis and structure-activity relationship of C-3 quaternary ammonium cephalosporins exhibiting anti-MRSA activities” (1997).
In brackets after ≈: the same amount, converted by molar mass.

Experiments:
Format in all cases: functional
[1] = system: Staphylococcus aureus; experiment: In vitro activity against MRSA (A27217; heterogeneous strain) by standard broth dilution method
[2] = system: Staphylococcus aureus; experiment: In vitro activity against MRSA (A27223; homogeneous strain) by standard broth dilution method
[3] = system: Staphylococcus aureus; experiment: In vitro activity against MRSA (A27226; homogeneous strain) by standard broth dilution method
[4] = system: Staphylococcus aureus; experiment: In vitro activity against MRSA (A27621; homogeneous strain) by standard broth dilution method
[5] = system: Staphylococcus aureus; experiment: In vitro activity against MSSA (A15090) by standard broth dilution method
[6] = system: Staphylococcus aureus; experiment: In vitro activity against MSSA (A20241) by standard broth dilution method
[7] = In vivo inhibitory activity of compound against staphylococcus aureus; […]; conditions: read-out: PD50
[8] = In vivo inhibitory activity of compound against staphylococcus aureus; conditions: read-out: PD50
[9] = Staphylococcus aureus, read-out: MIC

Row | Structure (SMILES) | MIC [1, 9] | MIC [2, 9] | MIC [3, 9] | MIC [4, 9] | MIC [5, 9] | MIC [6, 9] | ED50 [7] | MIC [1] | MIC [2] | MIC [3] | MIC [4] | MIC [5] | MIC [6] | ED50 [8]
1 | O=C(CSc1cc(Cl)ccc1Cl)N[C@@H]1C(=O)N2C(C(=O)[O-])=C(C[n+]3cccc4c3CCCC4)CS[C@H]12 | 1 µg/mL (≈ 1.77 µM) | 2 µg/mL (≈ 3.54 µM) | 1 µg/mL (≈ 1.77 µM) | 2 µg/mL (≈ 3.54 µM) | 0.5 µg/mL (≈ 0.886 µM) | 0.5 µg/mL (≈ 0.886 µM) |  |  |  |  |  |  |  | 
2 | NCC(=O)NC1C[N+]2(CC3=C(C(=O)[O-])N4C(=O)[C@@H](NC(=O)CSc5cc(Cl)ccc5Cl)[C@H]4SC3)CCC1CC2 (stereo partly drawn) | 4 µg/mL (≈ 6.51 µM) | 4 µg/mL (≈ 6.51 µM) | 2 µg/mL (≈ 3.25 µM) | 4 µg/mL (≈ 6.51 µM) | 0.5 µg/mL (≈ 0.814 µM) | 0.5 µg/mL (≈ 0.814 µM) |  |  |  |  |  |  |  | 
3 | NC(=O)COc1cccc2c[n+](CC3=C(C(=O)[O-])N4C(=O)[C@@H](NC(=O)CSc5cc(Cl)ccc5Cl)[C@H]4SC3)ccc12 | 2 µg/mL (≈ 3.16 µM) | 2 µg/mL (≈ 3.16 µM) | 2 µg/mL (≈ 3.16 µM) | 2 µg/mL (≈ 3.16 µM) | 1 µg/mL (≈ 1.58 µM) | 1 µg/mL (≈ 1.58 µM) |  |  |  |  |  |  |  | 
4 | O=C(CSc1cc(Cl)ccc1Cl)N[C@@H]1C(=O)N2C(C(=O)[O-])=C(C[N+]34CCC(CC3)CC4)CS[C@H]12 | 2 µg/mL (≈ 3.69 µM) | 2 µg/mL (≈ 3.69 µM) | 4 µg/mL (≈ 7.37 µM) | 4 µg/mL (≈ 7.37 µM) | 1 µg/mL (≈ 1.84 µM) | 1 µg/mL (≈ 1.84 µM) |  |  |  |  |  |  |  | 
5 | NC(=O)c1ccc2n(cc[n+]2CC2=C(C(=O)[O-])N3C(=O)[C@@H](NC(=O)CSc4cc(Cl)ccc4Cl)[C@H]3SC2)c1 | 2 µg/mL (≈ 3.38 µM) | 2 µg/mL (≈ 3.38 µM) | 2 µg/mL (≈ 3.38 µM) | 2 µg/mL (≈ 3.38 µM) | 0.5 µg/mL (≈ 0.844 µM) | 1 µg/mL (≈ 1.69 µM) |  |  |  |  |  |  |  | 
6 | O=C(CSc1cc(Cl)ccc1Cl)N[C@@H]1C(=O)N2C(C(=O)[O-])=C(C[n+]3ccn4ccccc43)CS[C@H]12 | 2 µg/mL (≈ 3.64 µM) | 4 µg/mL (≈ 7.28 µM) | 1 µg/mL (≈ 1.82 µM) | 2 µg/mL (≈ 3.64 µM) | 0.25 µg/mL (≈ 0.455 µM) | 0.5 µg/mL (≈ 0.91 µM) |  |  |  |  |  |  |  | 
7 | O=C(CSc1cc(Cl)ccc1Cl)N[C@@H]1C(=O)N2C(C(=O)[O-])=C(C[n+]3cccc4cc[nH]c43)CS[C@H]12 | 1 µg/mL (≈ 1.82 µM) | 2 µg/mL (≈ 3.64 µM) | 2 µg/mL (≈ 3.64 µM) | 2 µg/mL (≈ 3.64 µM) | 1 µg/mL (≈ 1.82 µM) | 1 µg/mL (≈ 1.82 µM) |  |  |  |  |  |  |  | 
8 | O=C(C[N+]12CCN(CC1)CC2)N[C@@H]1C(=O)N2C(C(=O)[O-])=C(CSc3cc(Cl)ccc3Cl)CS[C@H]12 | 128 µg/mL (≈ 236 µM) | 128 µg/mL (≈ 236 µM) | 128 µg/mL (≈ 236 µM) | 128 µg/mL (≈ 236 µM) | 4 µg/mL (≈ 7.36 µM) | 4 µg/mL (≈ 7.36 µM) |  |  |  |  |  |  |  | 
9 | O=C(CSc1cc(Cl)ccc1Cl)N[C@@H]1C(=O)N2C(C(=O)[O-])=C(C[N+]34CCN(CC3)CC4)CS[C@H]12 | 2 µg/mL (≈ 3.68 µM) | 4 µg/mL (≈ 7.36 µM) | 4 µg/mL (≈ 7.36 µM) | 4 µg/mL (≈ 7.36 µM) | 0.25 µg/mL (≈ 0.46 µM) | 0.5 µg/mL (≈ 0.92 µM) | 0.8 mg/kg |  |  |  |  |  |  | 
10 | O=C(CSc1cc(Cl)ccc1Cl)N[C@@H]1C(=O)N2C(C(=O)[O-])=C(C[n+]3cccc4[nH]cnc43)CS[C@H]12 | 1 µg/mL (≈ 1.82 µM) | 2 µg/mL (≈ 3.63 µM) | 1 µg/mL (≈ 1.82 µM) | 2 µg/mL (≈ 3.63 µM) | 0.125 µg/mL (≈ 0.227 µM) | 0.125 µg/mL (≈ 0.227 µM) |  |  |  |  |  |  |  | 
11 | O=C(CSc1cc(Cl)ccc1Cl)N[C@@H]1C(=O)N2C(C(=O)[O-])=C(C[N+]34CCC(CC3)C(O)C4)CS[C@H]12 (stereo partly drawn) | 1 µg/mL (≈ 1.79 µM) | 1 µg/mL (≈ 1.79 µM) | 1 µg/mL (≈ 1.79 µM) | 1 µg/mL (≈ 1.79 µM) | 0.25 µg/mL (≈ 0.448 µM) | 0.25 µg/mL (≈ 0.448 µM) |  |  |  |  |  |  |  | 
12 | O=C(CSc1cc(Cl)ccc1Cl)N[C@@H]1C(=O)N2C(C(=O)[O-])=C(C[N+]34CN5CN(CN(C5)C3)C4)CS[C@H]12 | 4 µg/mL (≈ 7 µM) | 8 µg/mL (≈ 14 µM) | 8 µg/mL (≈ 14 µM) | 8 µg/mL (≈ 14 µM) | 0.125 µg/mL (≈ 0.219 µM) | 0.125 µg/mL (≈ 0.219 µM) |  |  |  |  |  |  |  | 
13 | O=C(CSc1cc(Cl)ccc1Cl)N[C@@H]1C(=O)N2C(C(=O)[O-])=C(C[n+]3ccc4c(O)cccc4c3)CS[C@H]12 | 1 µg/mL (≈ 1.73 µM) | 1 µg/mL (≈ 1.73 µM) | 1 µg/mL (≈ 1.73 µM) | 1 µg/mL (≈ 1.73 µM) | 1 µg/mL (≈ 1.73 µM) | 1 µg/mL (≈ 1.73 µM) |  |  |  |  |  |  |  | 
14 | O=C(CSc1cc(Cl)ccc1Cl)N[C@@H]1C(=O)N2C(C(=O)[O-])=C(C[n+]3ccc4ccccc4c3)CS[C@H]12 | 2 µg/mL (≈ 3.57 µM) | 2 µg/mL (≈ 3.57 µM) | 2 µg/mL (≈ 3.57 µM) | 2 µg/mL (≈ 3.57 µM) | 0.5 µg/mL (≈ 0.892 µM) | 0.5 µg/mL (≈ 0.892 µM) |  |  |  |  |  |  |  | 
15 | C[N+]1(CC2=C(C(=O)[O-])N3C(=O)[C@@H](NC(=O)CSc4cc(Cl)ccc4Cl)[C@H]3SC2)C2CCCC1CC2 (stereo partly drawn) | 2 µg/mL (≈ 3.59 µM) | 2 µg/mL (≈ 3.59 µM) | 2 µg/mL (≈ 3.59 µM) | 2 µg/mL (≈ 3.59 µM) | 0.25 µg/mL (≈ 0.449 µM) | 0.25 µg/mL (≈ 0.449 µM) |  |  |  |  |  |  |  | 
16 | O=C(CSc1cc(Cl)ccc1Cl)N[C@@H]1C(=O)N2C(C(=O)[O-])=C(C[n+]3ccc4c(c3)CCCC4)CS[C@H]12 | 2 µg/mL (≈ 3.54 µM) | 4 µg/mL (≈ 7.09 µM) | 2 µg/mL (≈ 3.54 µM) | 4 µg/mL (≈ 7.09 µM) | 0.5 µg/mL (≈ 0.886 µM) | 0.5 µg/mL (≈ 0.886 µM) |  |  |  |  |  |  |  | 
17 | C[N+]1(CC2=C(C(=O)[O-])N3C(=O)[C@@H](NC(=O)CSc4cc(Cl)ccc4Cl)[C@H]3SC2)C2CCC1CC(=O)C2 (stereo partly drawn) | 2 µg/mL (≈ 3.51 µM) | 4 µg/mL (≈ 7.01 µM) | 4 µg/mL (≈ 7.01 µM) | 4 µg/mL (≈ 7.01 µM) | 0.5 µg/mL (≈ 0.876 µM) | 0.5 µg/mL (≈ 0.876 µM) |  |  |  |  |  |  |  | 
18 | NCCC(=O)NC1C[N+]2(CC3=C(C(=O)[O-])N4C(=O)[C@@H](NC(=O)CSc5cc(Cl)ccc5Cl)[C@H]4SC3)CCC1CC2 (stereo partly drawn) | 2 µg/mL (≈ 3.18 µM) | 4 µg/mL (≈ 6.36 µM) | 4 µg/mL (≈ 6.36 µM) | 4 µg/mL (≈ 6.36 µM) | 1 µg/mL (≈ 1.59 µM) | 1 µg/mL (≈ 1.59 µM) |  |  |  |  |  |  |  | 
19 | C[N+]1(CC2=C(C(=O)[O-])N3C(=O)[C@@H](NC(=O)CSc4cc(Cl)ccc4Cl)[C@H]3SC2)[C@@H]2CC[C@H]1C[C@@H](O)C2 (stereo in doubt; 6r) | 1 µg/mL (≈ 1.75 µM) | 2 µg/mL (≈ 3.49 µM) | 2 µg/mL (≈ 3.49 µM) | 2 µg/mL (≈ 3.49 µM) | 0.25 µg/mL (≈ 0.437 µM) | 0.25 µg/mL (≈ 0.437 µM) | 0.8 mg/kg |  |  |  |  |  |  | 
20 | C[N+]1(CC2=C(C(=O)[O-])N3C(=O)[C@@H](NC(=O)CSc4cc(Cl)ccc4Cl)[C@H]3SC2)[C@@H]2CC[C@H]1C[C@@H](O)C2 (stereo in doubt; 6s) |  |  |  |  |  |  |  | 1 µg/mL (≈ 1.75 µM) | 4 µg/mL (≈ 6.99 µM) | 4 µg/mL (≈ 6.99 µM) | 2 µg/mL (≈ 3.49 µM) | 0.125 µg/mL (≈ 0.218 µM) | 0.125 µg/mL (≈ 0.218 µM) | 9.5 mg/kg
